Four molecules from PubChem BioAssay (NCI) can be followed below.

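Compound exposure: 48 hours, 5 concentrations, 96-well plates. At the TGI there is no net growth.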

One experiment concerns MDA-MB-435. Briefly: NCI tumour cell line growth inhibition, 48 h.
As for `CC(=O)n1nc(-c2ccccc2)n(/N=C/c2ccc([N+](=O)[O-])o2)c1=O`, the TGI worked out at 12.1 µM.

Turning to `Cc1ccc(NC(=O)/C(Cc2cc(=O)oc3cc(O)ccc23)=N\NC(=O)C[N+](C)(C)C)cc1C`, the TGI was over 100 µM.

For the molecule `CC1OC(c2ccc3c(c2O)C(=O)C2=C(C3=O)C3(O)C(=O)CC(C)(O)CC3(O)C=C2)CC(O)C1O` (stereo not drawn), the TGI is over 42.5 µM.

With `CCN(CC)CCO/N=C1\CC[C@H]2[C@@H]3CCc4cc(OC)ccc4[C@H]3CC[C@]12C`, the TGI is 1.48 µM.

In a further experiment the test system is HOP-92 NSCLC. Briefly: NCI tumour cell line growth inhibition, 48 h.
As for `CC(=O)n1nc(-c2ccccc2)n(/N=C/c2ccc([N+](=O)[O-])o2)c1=O`, the TGI was 35.9 µM.

With `Cc1ccc(NC(=O)/C(Cc2cc(=O)oc3cc(O)ccc23)=N\NC(=O)C[N+](C)(C)C)cc1C`, the TGI was over 100 µM.

In turn, `CC1OC(c2ccc3c(c2O)C(=O)C2=C(C3=O)C3(O)C(=O)CC(C)(O)CC3(O)C=C2)CC(O)C1O` (stereo not drawn) displayed a TGI of 30.7 µM.

`CCN(CC)CCO/N=C1\CC[C@H]2[C@@H]3CCc4cc(OC)ccc4[C@H]3CC[C@]12C` had a TGI of 7.25 µM.

The next experiment concerns MDA-MB-231 breast. Kind of experiment: NCI tumour cell line growth inhibition, 48 h.
`CC(=O)n1nc(-c2ccccc2)n(/N=C/c2ccc([N+](=O)[O-])o2)c1=O` gave a TGI of 17.1 µM.

In the case of `Cc1ccc(NC(=O)/C(Cc2cc(=O)oc3cc(O)ccc23)=N\NC(=O)C[N+](C)(C)C)cc1C`, the TGI was over 100 µM.

`CC1OC(c2ccc3c(c2O)C(=O)C2=C(C3=O)C3(O)C(=O)CC(C)(O)CC3(O)C=C2)CC(O)C1O` (stereo not drawn): the TGI is 6.17 µM.

In turn, `CCN(CC)CCO/N=C1\CC[C@H]2[C@@H]3CCc4cc(OC)ccc4[C@H]3CC[C@]12C` displayed a TGI of 8.54 µM.

The subject of another experiment is CAKI-1 renal. Briefly: NCI tumour cell line growth inhibition, 48 h.
Regarding `CC(=O)n1nc(-c2ccccc2)n(/N=C/c2ccc([N+](=O)[O-])o2)c1=O`, the TGI came to 24.4 µM.

In turn, `Cc1ccc(NC(=O)/C(Cc2cc(=O)oc3cc(O)ccc23)=N\NC(=O)C[N+](C)(C)C)cc1C` displayed a TGI of over 100 µM.

Take `CC1OC(c2ccc3c(c2O)C(=O)C2=C(C3=O)C3(O)C(=O)CC(C)(O)CC3(O)C=C2)CC(O)C1O` (stereo not drawn): the TGI was 19.7 µM.

Consider `CCN(CC)CCO/N=C1\CC[C@H]2[C@@H]3CCc4cc(OC)ccc4[C@H]3CC[C@]12C`, for which the TGI was 2.13 µM.

In a further experiment the test system is SW-620 colon. Briefly: NCI tumour cell line growth inhibition, 48 h.
`CC(=O)n1nc(-c2ccccc2)n(/N=C/c2ccc([N+](=O)[O-])o2)c1=O`: the TGI came out at 22.9 µM.

For the molecule `Cc1ccc(NC(=O)/C(Cc2cc(=O)oc3cc(O)ccc23)=N\NC(=O)C[N+](C)(C)C)cc1C`, the TGI was over 100 µM.

As to `CC1OC(c2ccc3c(c2O)C(=O)C2=C(C3=O)C3(O)C(=O)CC(C)(O)CC3(O)C=C2)CC(O)C1O` (stereo not drawn), the TGI was found to be 21.7 µM.

The molecule `CCN(CC)CCO/N=C1\CC[C@H]2[C@@H]3CCc4cc(OC)ccc4[C@H]3CC[C@]12C` displayed a TGI of 3.47 µM.

The test system of another experiment is SNB-75 CNS. Briefly: NCI tumour cell line growth inhibition, 48 h.
`CC(=O)n1nc(-c2ccccc2)n(/N=C/c2ccc([N+](=O)[O-])o2)c1=O` came in with a TGI of 26.8 µM.

`Cc1ccc(NC(=O)/C(Cc2cc(=O)oc3cc(O)ccc23)=N\NC(=O)C[N+](C)(C)C)cc1C` had a TGI of over 100 µM.

As for `CC1OC(c2ccc3c(c2O)C(=O)C2=C(C3=O)C3(O)C(=O)CC(C)(O)CC3(O)C=C2)CC(O)C1O` (stereo not drawn), the TGI was 48.7 µM.

Molecule `CCN(CC)CCO/N=C1\CC[C@H]2[C@@H]3CCc4cc(OC)ccc4[C@H]3CC[C@]12C` yielded a TGI of 9.25 µM.

The next experiment concerns RPMI-8226 leukemia. Kind of experiment: NCI tumour cell line growth inhibition, 48 h.
As for `CC(=O)n1nc(-c2ccccc2)n(/N=C/c2ccc([N+](=O)[O-])o2)c1=O`, the TGI was 28.2 µM.

With `Cc1ccc(NC(=O)/C(Cc2cc(=O)oc3cc(O)ccc23)=N\NC(=O)C[N+](C)(C)C)cc1C`, the TGI was over 100 µM.

Turning to `CC1OC(c2ccc3c(c2O)C(=O)C2=C(C3=O)C3(O)C(=O)CC(C)(O)CC3(O)C=C2)CC(O)C1O` (stereo not drawn), the TGI amounted to 48.1 µM.

As to `CCN(CC)CCO/N=C1\CC[C@H]2[C@@H]3CCc4cc(OC)ccc4[C@H]3CC[C@]12C`, the TGI stood at 4.26 µM.

Another experiment deals with HT29 colon. Briefly: NCI tumour cell line growth inhibition, 48 h.
As for `CC(=O)n1nc(-c2ccccc2)n(/N=C/c2ccc([N+](=O)[O-])o2)c1=O`, the TGI was determined as 21.8 µM.

On to `Cc1ccc(NC(=O)/C(Cc2cc(=O)oc3cc(O)ccc23)=N\NC(=O)C[N+](C)(C)C)cc1C`, for which the TGI was over 100 µM.

`CC1OC(c2ccc3c(c2O)C(=O)C2=C(C3=O)C3(O)C(=O)CC(C)(O)CC3(O)C=C2)CC(O)C1O` (stereo not drawn) had a TGI of 19.6 µM.

Take `CCN(CC)CCO/N=C1\CC[C@H]2[C@@H]3CCc4cc(OC)ccc4[C@H]3CC[C@]12C`: the TGI was 2.07 µM.

A further experiment relates to SR leukemia. Briefly: NCI tumour cell line growth inhibition, 48 h.
As to `CC(=O)n1nc(-c2ccccc2)n(/N=C/c2ccc([N+](=O)[O-])o2)c1=O`, the TGI was 14.1 µM.

Regarding `Cc1ccc(NC(=O)/C(Cc2cc(=O)oc3cc(O)ccc23)=N\NC(=O)C[N+](C)(C)C)cc1C`, the TGI is over 100 µM.

For `CC1OC(c2ccc3c(c2O)C(=O)C2=C(C3=O)C3(O)C(=O)CC(C)(O)CC3(O)C=C2)CC(O)C1O` (stereo not drawn), the TGI is 33.5 µM.

Molecule `CCN(CC)CCO/N=C1\CC[C@H]2[C@@H]3CCc4cc(OC)ccc4[C@H]3CC[C@]12C` displayed a TGI of 4.31 µM.

The test system of the next experiment is NCI/ADR-RES ovarian. Kind of experiment: NCI tumour cell line growth inhibition, 48 h.
With `CC(=O)n1nc(-c2ccccc2)n(/N=C/c2ccc([N+](=O)[O-])o2)c1=O`, the TGI is 27.5 µM.

`Cc1ccc(NC(=O)/C(Cc2cc(=O)oc3cc(O)ccc23)=N\NC(=O)C[N+](C)(C)C)cc1C`: the TGI is over 100 µM.

For `CC1OC(c2ccc3c(c2O)C(=O)C2=C(C3=O)C3(O)C(=O)CC(C)(O)CC3(O)C=C2)CC(O)C1O` (stereo not drawn), the TGI worked out at 51.8 µM.

Consider `CCN(CC)CCO/N=C1\CC[C@H]2[C@@H]3CCc4cc(OC)ccc4[C@H]3CC[C@]12C`, for which the TGI is 23.9 µM.

For another experiment, the system named is NCI-H226 lung. Kind of experiment: NCI tumour cell line growth inhibition, 48 h.
`CC(=O)n1nc(-c2ccccc2)n(/N=C/c2ccc([N+](=O)[O-])o2)c1=O` gave a TGI of over 19.8 µM.

The molecule `Cc1ccc(NC(=O)/C(Cc2cc(=O)oc3cc(O)ccc23)=N\NC(=O)C[N+](C)(C)C)cc1C` gave a TGI of over 100 µM.

`CC1OC(c2ccc3c(c2O)C(=O)C2=C(C3=O)C3(O)C(=O)CC(C)(O)CC3(O)C=C2)CC(O)C1O` (stereo not drawn) yielded a TGI of 49.8 µM.

Molecule `CCN(CC)CCO/N=C1\CC[C@H]2[C@@H]3CCc4cc(OC)ccc4[C@H]3CC[C@]12C` registered a TGI of 4.69 µM.

Another experiment has as its system COLO 205 colon. Kind of experiment: NCI tumour cell line growth inhibition, 48 h.
As for `CC(=O)n1nc(-c2ccccc2)n(/N=C/c2ccc([N+](=O)[O-])o2)c1=O`, the TGI worked out at 12.7 µM.

For `Cc1ccc(NC(=O)/C(Cc2cc(=O)oc3cc(O)ccc23)=N\NC(=O)C[N+](C)(C)C)cc1C`, the TGI was over 100 µM.

Regarding `CC1OC(c2ccc3c(c2O)C(=O)C2=C(C3=O)C3(O)C(=O)CC(C)(O)CC3(O)C=C2)CC(O)C1O` (stereo not drawn), the TGI was determined as 3.39 µM.

As to `CCN(CC)CCO/N=C1\CC[C@H]2[C@@H]3CCc4cc(OC)ccc4[C@H]3CC[C@]12C`, the TGI was determined as 3.03 µM.

The test system of another experiment is SK-MEL-2 melanoma. Kind of experiment: NCI tumour cell line growth inhibition, 48 h.
Regarding `CC(=O)n1nc(-c2ccccc2)n(/N=C/c2ccc([N+](=O)[O-])o2)c1=O`, the TGI was 11.5 µM.

Molecule `Cc1ccc(NC(=O)/C(Cc2cc(=O)oc3cc(O)ccc23)=N\NC(=O)C[N+](C)(C)C)cc1C` returned a TGI of over 100 µM.

As to `CC1OC(c2ccc3c(c2O)C(=O)C2=C(C3=O)C3(O)C(=O)CC(C)(O)CC3(O)C=C2)CC(O)C1O` (stereo not drawn), the TGI was 42.4 µM.

`CCN(CC)CCO/N=C1\CC[C@H]2[C@@H]3CCc4cc(OC)ccc4[C@H]3CC[C@]12C` gave a TGI of 5.07 µM.

The subject of a further experiment is MOLT-4 leukemia. Kind of experiment: NCI tumour cell line growth inhibition, 48 h.
In the case of `CC(=O)n1nc(-c2ccccc2)n(/N=C/c2ccc([N+](=O)[O-])o2)c1=O`, the TGI was 18.6 µM.

`Cc1ccc(NC(=O)/C(Cc2cc(=O)oc3cc(O)ccc23)=N\NC(=O)C[N+](C)(C)C)cc1C` registered a TGI of over 100 µM.

`CC1OC(c2ccc3c(c2O)C(=O)C2=C(C3=O)C3(O)C(=O)CC(C)(O)CC3(O)C=C2)CC(O)C1O` (stereo not drawn) registered a TGI of 15.3 µM.

On to `CCN(CC)CCO/N=C1\CC[C@H]2[C@@H]3CCc4cc(OC)ccc4[C@H]3CC[C@]12C`, for which the TGI came out at 3.72 µM.

A further experiment relates to HCC-2998 colon. Briefly: NCI tumour cell line growth inhibition, 48 h.
`CC(=O)n1nc(-c2ccccc2)n(/N=C/c2ccc([N+](=O)[O-])o2)c1=O` came in with a TGI of 19.1 µM.

`Cc1ccc(NC(=O)/C(Cc2cc(=O)oc3cc(O)ccc23)=N\NC(=O)C[N+](C)(C)C)cc1C` returned a TGI of over 100 µM.
